Experimental findings from patent US12589170B2, “Devices and methods for radiopharmaceutical synthesis” (VANDERBILT UNIVERSITY, priority 2019, dated 2026) are described below.

Data set [1] has as its system rat brain. As to the kind of experiment: microPET imaging of rat brain with [18F]fallypride produced in the microfluidic chip. Type of data set: in vivo. The settings on record: dose of about 300 μCi, microPET for about 2 hours. The text has this: To further verify the utility of the resulting [^18F]fallypride, we produced (using the integrated microfluidic chip) a dose of about 300 μCi with about 19.55 Ci/μmol (723.35 GBq/μmol) of specific activity and about 98.62% of radiochemical purity, and obtained PET data from a rat brain. The time point used to calculate the specific activity was at the end of production, namely the time when the purified [^18F]fallypride was retrieved from chip. The rat was brought to the imaging lab to habituate about 3 hours prior to imaging. About 0.1 ml purified [^18F] fallypride was filtered through an about 0.45 μm filter (Millex-HV) and about 0.9 ml saline was added to formulate the PET probe used for rat injection. […] The accumulation and pharmacokinetics of [^18F]fallypride were as expected when evaluated in the rat brain.

Data set [2] can be described thus: Stability of final product at room temperature examined by radio-HPLC. The settings on record: duration up to about 4 hours. Type of data set: physicochemical. The method, then:
A Hitachi HPLC (LaChrom Elite, Pump L-2130) equipped with a wavelength UV detector (L-2400, 254 nm) and inline radiation detector (Inline Carroll & Ramsey) was used to evaluate radiochemical purity. A C18 column (Phenomenex Gemini, particle size about 10 μm, 150×4.6 mm) was used. For the mobile phase, acetonitrile (referred as A1) mixed with water containing about 0.1% trifluoroacetic acid (TFA) was used with gradient as following: 0% A1/100% TFA for about 0-2 min, 100% A1/0% TFA for about 8-10 min. The flow rate was constantly set as about 1 mL/min. Moreover, radiochemical purity was also examined by radio thin layer chromatography (TLC) using ITLC (instant TLC) paper strips (Varian). […] The value of radioactivity was measured using a calibrated dose calibrator (Capintec, CRC-25PET). The radiochemical yields were evaluated as a percentage of total activity of ^68GaCl3 initially delivered from the generator. Unless specified elsewhere, all efficiencies are calculated based on decay-corrected values.
A radio-TLC chromatogram of synthesized product is shown in FIG. 6 and the ^68Ga-labelled peptide has an approximate retardation factor of about 0.8-1.0. Using the microfluidic device, the incorporation efficiency of 100% can be consistently achieved as determined by radio HPLC chromatogram (FIG. 7B). […]

For `C=CCN1CCC[C@H]1CNC(=O)c1cc(CCC[18F])cc(OC)c1OC` [[^18F]fallypride], in data set [1], the “accumulation and pharmacokinetics in the rat brain” value was “as expected”.
Consider `O=C([O-])CN(CCN(CC(=O)[O-])Cc1cc(CCC(=O)NCCCCCC(=O)NCCCC[C@H](NC(=O)N[C@@H](CCC(=O)O)C(=O)O)C(=O)O)ccc1[O-])Cc1cc(CCC(=O)O)ccc1[O-].[68Ga+3].[OH3+]` [^68Ga-PSMA-11], for which the “stability of final product (retention time, product purity by radio-HPLC)” value in data set [2] is given as “no discrepancy on retention time or product purity was observed”.
